What was measured:
Assay type in all cases: functional
[1] = tested on: Rattus norvegicus; experiment: Anti-inflammatory activity in Wistar Rattus norvegicus (rat) assessed as inhibition of carrageenan-induced paw edema at 10 mg/kg, ip measured after 4 hr; details: route intraperitoneal
[2] = tested on: Rattus norvegicus; experiment: Anti-inflammatory activity in Wistar Rattus norvegicus (rat) assessed as inhibition of carrageenan-induced paw edema at 10 mg/kg, ip measured after 30 min; details: 0.5 h, route intraperitoneal
[3] = tested on: Rattus norvegicus; experiment: Anti-inflammatory activity in Wistar Rattus norvegicus (rat) assessed as inhibition of carrageenan-induced paw edema at 10 mg/kg, ip measured after 2 hr; details: route intraperitoneal
[4] = tested on: Rattus norvegicus; experiment: Anti-inflammatory activity in Wistar Rattus norvegicus (rat) assessed as inhibition of carrageenan-induced paw edema at 10 mg/kg, ip measured after 3 hr; details: route intraperitoneal
[5] = tested on: Mus musculus; experiment: Analgesic activity in NMRI Mus musculus (mouse) assessed as inhibition of acetic acid-induced abdominal writhing at 10 mg/kg administered 30 min prior to acetic acid injection; details: Abdomen
[6] = tested on: Rattus norvegicus; experiment: Anti-inflammatory activity in Wistar Rattus norvegicus (rat) assessed as inhibition of carrageenan-induced paw edema at 10 mg/kg, ip measured after 1 hr; details: route intraperitoneal

| Compound | inhibition in vivo at 10 mg/kg [1] [%] | inhibition in vivo at 10 mg/kg [2] [%] | inhibition in vivo at 10 mg/kg [3] [%] | inhibition in vivo at 10 mg/kg [4] [%] | inhibition in vivo at 10 mg/kg [5] [%] | inhibition in vivo at 10 mg/kg [6] [%] |
| --- | --- | --- | --- | --- | --- | --- |
| O=C(N/N=C/c1ccccc1)c1cccnc1Nc1cccc(C(F)(F)F)c1 | 31 | 60.4 | 36.8 | 21.2 | 66.2 | 53.9 |
| O=C(N/N=C/c1cccc(F)c1)c1cccnc1Nc1cccc(C(F)(F)F)c1 | 29.8 | 58.2 | 52.8 | 37 |  | 51.5 |
| O=C(N/N=C/c1ccc(F)cc1)c1cccnc1Nc1cccc(C(F)(F)F)c1 | 36.5 | 33.9 | 41.2 | 41.3 |  | 43.2 |
| O=C(N/N=C/c1cccc(Cl)c1)c1cccnc1Nc1cccc(C(F)(F)F)c1 | 40.4 | 77.8 | 63.5 | 55.2 | 61.9 | 76.7 |
| O=C(N/N=C/c1ccc(Cl)cc1)c1cccnc1Nc1cccc(C(F)(F)F)c1 | 43.7 | 52.4 | 52.8 | 48.5 |  | 67.2 |
| O=C(N/N=C/c1cccc(O)c1)c1cccnc1Nc1cccc(C(F)(F)F)c1 | 35.8 | 67.5 | 65.4 | 49 |  | 63.8 |
| O=C(N/N=C/c1ccc(O)cc1)c1cccnc1Nc1cccc(C(F)(F)F)c1 | 61.6 | 59.2 | 68 | 59.5 |  | 70.5 |
| O=C(N/N=C/c1ccc(O)c(O)c1)c1cccnc1Nc1cccc(C(F)(F)F)c1 | 21.1 | 51.4 | 46.9 | 38.2 |  | 50.8 |
| COc1cccc(/C=N/NC(=O)c2cccnc2Nc2cccc(C(F)(F)F)c2)c1 | 14.9 | 52.8 | 49.7 | 30.3 |  | 58.8 |
| COc1ccc(/C=N/NC(=O)c2cccnc2Nc2cccc(C(F)(F)F)c2)cc1 | 14 | 50.4 | 42.4 | 26.5 | 97.4 | 59.4 |
| COc1ccc(/C=N/NC(=O)c2cccnc2Nc2cccc(C(F)(F)F)c2)c(OC)c1 | 19.8 | 37.8 | 44.7 | 24.1 |  | 55.7 |
